According to patent publication US7365088B2, “Indazole-derivatives as factor Xa inhibitors” (Sanofi-Aventis Deutschland GmbH, priority 2003, dated 2008):

These compounds were tested against human factor Xa (Homo sapiens, UniProt P00742) (assay: Factor Xa assay (chromogenic, substrate S-2765)).
human factor Xa, sequence (P00742 235-488 limits assumed): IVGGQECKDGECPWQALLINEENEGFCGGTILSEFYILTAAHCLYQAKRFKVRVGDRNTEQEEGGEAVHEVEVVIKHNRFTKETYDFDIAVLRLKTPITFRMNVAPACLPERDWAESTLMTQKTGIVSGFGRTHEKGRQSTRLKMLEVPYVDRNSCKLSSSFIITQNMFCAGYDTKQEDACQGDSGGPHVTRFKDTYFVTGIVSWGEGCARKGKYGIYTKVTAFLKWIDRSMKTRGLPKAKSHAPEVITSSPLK
human factor Xa, sequence (P00742 41-179 partner limits assumed): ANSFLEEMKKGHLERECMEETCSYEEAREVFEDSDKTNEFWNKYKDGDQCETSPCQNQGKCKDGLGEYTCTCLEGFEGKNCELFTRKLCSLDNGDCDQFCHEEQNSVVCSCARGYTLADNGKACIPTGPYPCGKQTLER

SMILES | Ki
CC(C)N1CCC(NC(=O)c2nn(Cc3cc(-c4ccc(Cl)s4)on3)c3ccc(C(=O)NCCS(N)(=O)=O)cc23)CC1 [Example 14, 1-[5-(5-Chloro-thiophen-2-yl)-isoxazol-3-ylmethyl]-1H-indazole-3,5-dicarboxylic acid 3-[(1-isopropyl-piperidin-4-yl)-amide]5-[(2-sulfamoyl-ethyl)-amide]] | 28 nM
CC(C)N1CCC(NC(=O)c2nn(Cc3cc(-c4ccc(Cl)s4)on3)c3ccc(C(=O)NCCN4CCOCC4)cc23)CC1 [Example 15, 1-[5-(5-Chloro-thiophen-2-yl)-isoxazol-3-ylmethyl]-1H-indazole-3,5-dicarboxylic acid 3-[(1-isopropyl-piperidin-4-yl)-amide]5-[(2-morpholin-4-yl-ethyl)-amide]] | 46 nM
CC(C)N1CCC(NC(=O)c2nn(Cc3cc(-c4ccc(Cl)s4)on3)c3ccc(C(=O)NC[Si](C)(C)C)cc23)CC1 [Example 16, 1-[5-(5-Chloro-thiophen-2-yl)-isoxazol-3-ylmethyl]-1H-indazole-3,5-dicarboxylic acid 3-[(1-isopropyl-piperidin-4-yl)-amide]5-trimethylsilanylmethyl-amide] | 54 nM
CC(C)N1CCC(NC(=O)c2nn(Cc3cc(-c4ccc(Cl)s4)on3)c3ccc(C(=O)N(CCO)CCO)cc23)CC1 [Example 17, 1-[5-(5-Chloro-thiophen-2-yl)-isoxazol-3-ylmethyl]-1H-indazole-3,5-dicarboxylic acid 5-[bis-(2-hydroxy-ethyl)-amide]3-[(1-isopropyl-piperidin-4-yl)-amide]] | 30 nM
CC(C)N1CCC(NC(=O)c2nn(Cc3cc(-c4ccc(Cl)s4)on3)c3ccc(C(=O)N(C)CCO)cc23)CC1 [Example 18, 1-[5-(5-Chloro-thiophen-2-yl)-isoxazol-3-ylmethyl]-1H-indazole-3,5-dicarboxylic acid 5-[(2-hydroxy-ethyl)-methyl-amide]3-[(1-isopropyl-piperidin-4-yl)-amide]] | 13 nM
CCOC(=O)CNC(=O)c1ccc2c(c1)c(C(=O)NC1CCN(C(C)C)CC1)nn2Cc1cc(-c2ccc(Cl)s2)on1 [Example 19, {[1-[5-(5-Chloro-thiophen-2-yl)-isoxazol-3-ylmethyl]-3-(1-isopropyl-piperidin-4-ylcarbamoyl)-1H-indazole-5-carbonyl]-amino}-acetic acid ethyl ester] | 26 nM
CC(C)N1CCC(NC(=O)c2nn(Cc3cc(-c4ccc(Cl)s4)on3)c3ccc(C(=O)NCC(F)F)cc23)CC1 [Example 20, 1-[5-(5-Chloro-thiophen-2-yl)-isoxazol-3-ylmethyl]-1H-indazole-3,5-dicarboxylic acid 5-[(2,2-difluoro-ethyl)-amide]3-[(1-isopropyl-piperidin-4-yl)-amide]] | 47 nM
CC(C)N1CCC(NC(=O)c2nn(Cc3cc(-c4ccc(Cl)s4)on3)c3ccc(C(=O)NCC(N)=O)cc23)CC1 [Example 21, 1-[5-(5-Chloro-thiophen-2-yl)-isoxazol-3-ylmethyl]-1H-indazole-3,5-dicarboxylic acid 5-carbamoylmethyl-amide 3-[(1-isopropyl-piperidin-4-yl)-amide]] | 33 nM
CC(C)N1CCC(NC(=O)c2nn(Cc3cc(-c4ccc(Cl)s4)on3)c3ccc(C(=O)NCCO)cc23)CC1 [Example 22, 1-[5-(5-Chloro-thiophen-2-yl)-isoxazol-3-ylmethyl]-1H-indazole-3,5-dicarboxylic acid 5-[(2-hydroxy-ethyl)-amide]3-[(1-isopropyl-piperidin-4-yl)-amide]] | 28 nM
CC(C)N1CCC(NC(=O)c2nn(Cc3cc(-c4ccc(Cl)s4)on3)c3ccc(C(=O)NCCN4CCNC4=O)cc23)CC1 [Example 23, 1-[5-(5-Chloro-thiophen-2-yl)-isoxazol-3-ylmethyl]-1H-indazole-3,5-dicarboxylic acid 3-[(1-isopropyl-piperidin-4-yl)-amide]5-{[2-(2-oxo-imidazolidin-1-yl)-ethyl]-amide}] | 33 nM
CC(C)N1CCC(NC(=O)c2nn(Cc3cc(-c4ccc(Cl)s4)on3)c3ccc(C(=O)NC(C)(CO)CO)cc23)CC1 [Example 24, 1-[5-(5-Chloro-thiophen-2-yl)-isoxazol-3-ylmethyl]-1H-indazole-3,5-dicarboxylic acid 5-[(2-hydroxy-1-hydroxymethyl-1-methyl-ethyl)-amide]3-[(1-isopropyl-piperidin-4-yl)-amide]] | 51 nM
CC(C)N1CCC(NC(=O)c2nn(Cc3cc(-c4ccc(Cl)s4)on3)c3ccc(C(=O)NCC(=O)O)cc23)CC1 [Example 25, {[1-[5-(5-Chloro-thiophen-2-yl)-isoxazol-3-ylmethyl]-3-(1-isopropyl-piperidin-4-ylcarbamoyl)-1H-indazole-5-carbonyl]-amino}-acetic acid] | 14 nM
CC(C)N1CCC(NC(=O)c2nn(Cc3cc(-c4ccc(Cl)s4)on3)c3ccc(C(=O)N4CC[C@H]4C(=O)O)cc23)CC1 [Example 26, 1-[1-[5-(5-Chloro-thiophen-2-yl)-isoxazol-3-ylmethyl]-3-(1-isopropyl-piperidin-4-ylcarbamoyl)-1H-indazole-5-carbonyl]-(2S)-azetidine-2-carboxylic acid] | 17 nM
CC(C)N1CCC(NC(=O)c2nn(Cc3cc(-c4ccc(Cl)s4)on3)c3ccc(C(=O)NCC(F)(F)F)cc23)CC1 [Example 27, 1-[5-(5-Chloro-thiophen-2-yl)-isoxazol-3-ylmethyl]-1H-indazole-3,5-dicarboxylic acid 3-[(1-isopropyl-piperidin-4-yl)-amide]5-[(2,2,2-trifluoro-ethyl)-amide]] | 39 nM
CC(C)N1CCC(NC(=O)c2nn(Cc3cc(-c4ccc(Cl)s4)on3)c3ccc(C(=O)N(C)CC(=O)O)cc23)CC1 [Example 28, {[1-[5-(5-Chloro-thiophen-2-yl)-isoxazol-3-ylmethyl]-3-(1-isopropyl-piperidin-4-ylcarbamoyl)-1H-indazole-5-carbonyl]-methyl-amino}-acetic acid] | 15 nM
CC(C)N1CCC(NC(=O)c2nn(Cc3cc(-c4ccc(Cl)s4)on3)c3ccc(C(=O)OCCO)cc23)CC1 [Example 29, 1-[5-(5-Chloro-thiophen-2-yl)-isoxazol-3-ylmethyl]-3-(1-isopropyl-piperidin-4-ylcarbamoyl)-1H-indazole-5-carboxylic acid 2-hydroxy-ethyl ester] | 39 nM
CC(C)N1CCC(NC(=O)c2nn(Cc3cc(-c4ccc(Cl)s4)on3)c3ccc(C(=O)N4CCCOCC4)cc23)CC1 [Example 30, 1-[5-(5-Chloro-thiophen-2-yl)-isoxazol-3-ylmethyl]-5-([1,4]oxazepane-4-carbonyl)-1H-indazole-3-carboxylic acid (1-isopropyl-piperidin-4-yl)-amide] | 12 nM
CONC(=O)c1ccc2c(c1)c(C(=O)NC1CCN(C(C)C)CC1)nn2Cc1cc(-c2ccc(Cl)s2)on1 [Example 32, 1-[5-(5-Chloro-thiophen-2-yl)-isoxazol-3-ylmethyl]-1H-indazole-3,5-dicarboxylic acid 3-[(1-isopropyl-piperidin-4-yl)-amide]5-(methoxy-amide)] | 22 nM
O=C(Nc1ccc(C(=O)N2CCCC2)cc1)c1nn(Cc2cc(-c3ccc(Cl)s3)on2)c2ccccc12 [Example 34, 1-[5-(5-Chloro-thiophen-2-yl)-isoxazol-3-ylmethyl]-1H-indazole-3-carboxylic acid [4-(pyrrolidine-1-carbonyl)-phenyl]-amide] | 120 nM
O=C(Nc1ccc(C(=O)N2CCOCC2)cc1)c1nn(Cc2cc(-c3ccc(Cl)s3)on2)c2ccccc12 [Example 35, 1-[5-(5-Chloro-thiophen-2-yl)-isoxazol-3-ylmethyl]-1H-indazole-3-carboxylic acid [4-(morpholine-4-carbonyl)-phenyl]-amide] | 530 nM
O=C(c1nn(Cc2cc(-c3ccc(Cl)s3)on2)c2ccccc12)N1CCC(N2CCCC2=O)CC1 [Example 37, 1-(1-{1-[5-(5-Chloro-thiophen-2-yl)-isoxazol-3-ylmethyl]-1H-indazole-3-carbonyl}-piperidin-4-yl)-pyrrolidin-2-one] | 210 nM
O=C(Nc1ccc(N2CCCC2=O)cc1)c1nn(Cc2cc(-c3ccc(Cl)s3)on2)c2ccccc12 [Example 39, 1-[5-(5-Chloro-thiophen-2-yl)-isoxazol-3-ylmethyl]-1H-indazole-3-carboxylic acid [4-(2-oxo-pyrrolidin-1-yl)-phenyl]-amide] | 19 nM
CS(=O)(=O)c1ccccc1-c1ccc(NC(=O)c2nn(Cc3cc(-c4ccc(Cl)s4)on3)c3ccccc23)cc1 [Example 41, 1-[5-(5-Chloro-thiophen-2-yl)-isoxazol-3-ylmethyl]-1H-indazole-3-carboxylic acid (2′-methanesulfonyl-biphenyl-4-yl)-amide] | 7 nM
CC1CC(=O)NN=C1c1ccc(NC(=O)c2nn(Cc3cc(-c4ccc(Cl)s4)on3)c3ccccc23)cc1 (stereo not drawn) [Example 43, 1-[5-(5-Chloro-thiophen-2-yl)-isoxazol-3-ylmethyl]-1H-indazole-3-carboxylic acid [4-(4-methyl-6-oxo-1,4,5,6-tetrahydro-pyridazin-3-yl)-phenyl]-amide] | 730 nM
O=C(Nc1ccc(-c2c[nH]cn2)cc1)c1nn(Cc2cc(-c3ccc(Cl)s3)on2)c2ccccc12 [Example 45, 1-[5-(5-Chloro-thiophen-2-yl)-isoxazol-3-ylmethyl]-1H-indazole-3-carboxylic acid [4-(1H-imidazol-4-yl)-phenyl]-amide] | 180 nM
COC(=O)c1ccc2c(c1)c(C(=O)Nc1ccc(N3CCOCC3=O)cc1)nn2Cc1cc(-c2ccc(Cl)s2)on1 [Example 47, 1-[5-(5-Chloro-thiophen-2-yl)-isoxazol-3-ylmethyl]-3-[4-(3-oxo-morpholin-4-yl)-phenylcarbamoyl]-1H-indazole-5-carboxylic acid methyl ester] | 9 nM
Cc1oc(=O)oc1COC(=O)c1ccc2c(c1)c(C(=O)NC1CCN(C(C)C)CC1)nn2Cc1cc(-c2ccc(Cl)s2)on1 [Example 50, 1-[5-(5-Chloro-thiophen-2-yl)-isoxazol-3-ylmethyl]-3-(1-isopropyl-piperidin-4-ylcarbamoyl)-1H-indazole-5-carboxylic acid 5-methyl-2-oxo-[1,3]dioxol-4-ylmethyl ester] | 41 nM
